Like-named read-outs stand apart in the source and are kept apart here.
What was measured:
[1] = target: Myeloid Cell Leukemia 1(Mcl-1) (Homo sapiens, UniProt Q07820); assay: Terbium labeled Mcl-1 HTRF binding assay with Cy5-labeled BIM BH3 peptide; conditions: displacement of Cy5 Bim BH3 peptide; Ki=IC50/(1+[L]/Kd), [L]=8 nM, Kd=10 nM; 60 minutes at room temperature; read-out: Tb-MCL1 Ki
Protocol: Terbium labeled Myeloid Cell Leukemia 1(Mcl-1) homogeneous time-resolved fluorescence (HTRF) binding assay utilizing the BIM BH3 peptide (H2N—(C/Cy5Mal) WIAQELRRIGDEFN-OH) as the binding partner for Mcl-1.
This assay evaluated inhibition of the BH3 domain: Mcl-1 interaction by measuring the displacement of Cy5-labeled BIM BH3 peptide (H2N—(C/Cy5Mal) WIAQELRRIGDEFN-OH) in the HTRF assay format.
The following assay and stock buffers were prepared for use in the assay: (a) Stock buffer: 10 mM Tris-HCl, pH=7.5+150 mM NaCl, filtered, sterilized, and stored at 4° C.; and (b) 1X assay buffer, where the following ingredients were added fresh to stock buffer: 2 mM dithiothreitol (DTT), 0.0025% Tween-20, 0.1 mg/mL bovine serum albumin (BSA). The 1X Tb-Mcl-1+Cy5 Bim peptide solution was prepared by diluting the protein stock solution using the 1X assay buffer (b) to 25 pM Tb-Mcl-1 and 8 nM Cy5 Bim peptide.
Using the Acoustic ECHO, 100 nL of 100x test compound(s) were dispensed into individual wells of a white 384-well Perkin Elmer Proxiplate, for a final compound concentration of 1× and final DMSO concentration of 1%. Inhibitor control and neutral control (NC, 100 nL of 100% DMSO) were stamped into columns 23 and 24 of assay plate, respectively. Into each well of the plate was then dispensed 10 μL of the 1X Tb-Mcl-1+Cy5 Bim peptide solution. The plate was centrifuged with a cover plate at 1000 rpm for 1 minute, then incubated for 60 minutes at room temperature with plates covered.
The TR-FRET signal was read on an BMG PHERAStar FSX MicroPlate Reader at room temperature using the HTRF optic module (HTRF: excitation: 337 nm, light source: laser, emission A: 665 nm, emission B: 620 nm, integration start: 60 μs, integration time: […]).
The BMG PHERAStar FSX MicroPlate Reader was used to measure fluorescence intensity at two emission wavelengths—665 nm and 620 nm—and report relative fluorescence units (RFU) for both emissions, as well as a ratio of the emissions (665 nm/620 nm)*10,000. The RFU values were normalized to percent inhibition as follows:
% inhibition=(((NC−IC)−(compound−IC))/(NC−IC))*100
where IC (inhibitor control, low signal)= mean signal of 1X Tb-MCl-1+Cy5 Bim peptide+inhibitor control or 100% inhibition of Mcl-1; NC (neutral control, high signal)= mean signal 1X Tb-MCl-1+Cy5 Bim peptide with DMSO only or 0% inhibition An 11-point dose response curve was generated to determine IC50 values (using GenData) based on the following equation:
Y=Bottom+(Top−Bottom)/(1+10∧((log IC50−X)*HillSlope))
where Y=% inhibition in the presence of X inhibitor concentration; Top=100% inhibition derived from the IC (mean signal of Mcl-1+inhibitor control); Bottom=0% inhibition derived from the NC (mean signal of Mcl-1+DMSO); Hillslope=Hill coefficient; and IC50=concentration of compound with 50% inhibition in relation to top/neutral control (NC).
In this assay [L]=8 nM and Kd=10 nM

[2] = test system: MOLP-8 human multiple myeloma cell line; assay: Caspase-Glo 3/7 apoptosis induction assay in MOLP-8 cells; type: cell-based; conditions: caspase-3/7 activity, 2 hours at 37° C., averaged over all runs on all batches, read-out: MOLP8 AC50
Source text: MCL-1 is a regulator of apoptosis and is highly over-expressed in tumor cells that escape cell death. The assay evaluates the cellular potency of small-molecule compounds targeting regulators of the apoptosis pathway, primarily MCL-1, Bfl-1, Bcl-2, and other proteins of the Bcl-2 family. Protein-protein inhibitors disrupting the interaction of anti-apoptotic regulators with BH3-domain proteins initiate apoptosis.
The Caspase-Glo® 3/7 Assay is a luminescent assay that measures caspase-3 and −7 activities in purified enzyme preparations or cultures of adherent or suspension cells. The assay provides a proluminescent caspase-3/7 substrate, which contains the tetrapeptide sequence DEVD. This substrate is cleaved to release aminoluciferin, a substrate of luciferase used in the production of light. Addition of the single Caspase-Glo® 3/7 Reagent in an “add-mix-measure” format results in cell lysis, followed by caspase cleavage of the substrate and generation of a “glow-type” luminescent signal.
This assay uses the MOLP-8 human multiple myeloma cell line, which is sensitive to MCL-1 inhibition.
Cell cultures were maintained between 0.2 and 2.0×10^6 cells/mL. The cells were harvested by collection in 50 mL conical tubes. The cells were then pelleted at 500 g for 5 mins before removing supernatant and resuspension in fresh pre-warmed culture medium. The cells were counted and diluted as needed.
The assay reagent was prepared by transferring the buffer solution to the substrate vial and mixing. The solution may be stored for up to 1 week at 4° C. with negligible loss of signal.
Compounds were delivered in assay-ready plates (Proxiplate) and stored at −20° C. Assays always include 1 reference compound plate containing reference compounds. The plates were spotted with 40 nL of compounds (0.5% DMSO final in cells; serial dilution; […] highest conc. 1/3 dilution, 10 doses, duplicates). The compounds were used at room temperature and 4 μL of pre-warmed media was added to all wells except column 2 and 23. The negative control was prepared by adding 1% DMSO in media. The positive control was prepared by adding the appropriate positive control compound in final concentration of […] in media. The plate was prepared by adding 4 μL negative control to column 23, 4 μL positive control to column 2 and 4 μL cell suspension to all wells in the plate. The plate with cells was then incubated at 37° C. for 2 hours. The assay signal reagent is the Caspase-Glo solution described above, and 8 μL was added to all wells. The plates were then sealed and measured after 30 minutes.
The activity of a test compound was calculated as percent change in apoptosis induction as follows:
% Effect (AC50)=100−(sample-LC)/(HC-LC)*100
% Control=(sample/HC)*100
% Control min=(sample-LC)/(HC-LC)*100

Myeloid Cell Leukemia 1(Mcl-1), sequence (Q07820 whole entry): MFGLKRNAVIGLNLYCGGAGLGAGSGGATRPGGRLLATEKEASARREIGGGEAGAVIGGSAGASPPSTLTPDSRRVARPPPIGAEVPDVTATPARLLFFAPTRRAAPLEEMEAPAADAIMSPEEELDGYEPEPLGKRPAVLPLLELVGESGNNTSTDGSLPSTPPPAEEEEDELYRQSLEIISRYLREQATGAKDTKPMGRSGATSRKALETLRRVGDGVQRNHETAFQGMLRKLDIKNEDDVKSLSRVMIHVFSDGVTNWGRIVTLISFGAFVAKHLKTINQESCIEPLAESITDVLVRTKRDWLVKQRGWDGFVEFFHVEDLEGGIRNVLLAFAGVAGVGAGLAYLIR

Structure (SMILES)	Ki [1]	AC50 ([2]; Homo sapiens, MOLP-8, 2 h)	AC50 [2]
C[C@@H]1[C@@H](C)C/C=C(\F)[C@H](C(=O)N(C)CCN2CCOCC2)N2CCC[C@H]2CN2C[C@@]3(CCOc4cc(Cl)ccc43)COc3ccc(cc32)C(=O)NS1(=O)=O [Compound 78]	0.016 nM	547 nM	–
COCCN(CCOC)C(=O)[C@H]1/C(F)=C/C[C@H](C)CS(=O)(=O)NC(=O)c2ccc3c(c2)N(C[C@@H]2CCCN21)C[C@@]1(CCCc2cc(Cl)ccc21)CO3 [Compound 88]	0.029 nM	116 nM	–
C[C@@H]1CN(C(=O)[C@H]2/C(F)=C/C[C@H](C)[C@@H](C)S(=O)(=O)NC(=O)c3ccc4c(c3)N(C[C@@H]3CCCN32)C[C@@]2(CCCc3cc(Cl)ccc32)CO4)CCN1C [Compound 23]	0.054 nM	101 nM	–
COC1(C(F)(F)F)CN(C(=O)[C@H]2/C(F)=C/C[C@H](C)[C@@H](C)S(=O)(=O)NC(=O)c3ccc4c(c3)N(C[C@@H]3CCCN32)C[C@@]2(CCCc3cc(Cl)ccc32)CO4)C1 [Compound 42]	0.374 nM	463 nM	–
COCCOCCN(C)C(=O)[C@H]1/C(F)=C/C[C@H](C)[C@@H](C)S(=O)(=O)NC(=O)c2ccc3c(c2)N(C[C@@H]2CCCN21)C[C@@]1(CCCc2cc(Cl)ccc21)CO3 [Compound 19]	0.045 nM	79.3 nM	–
C[C@@H]1[C@@H](C)C/C=C(\F)[C@H](C(=O)N(C)Cc2ccnn2C)N2CCC[C@H]2CN2C[C@@]3(CCCc4cc(Cl)ccc43)COc3ccc(cc32)C(=O)NS1(=O)=O [Compound 34]	0.077 nM	76.9 nM	–
C[C@@H]1[C@@H](C)C/C=C(\F)[C@H](C(=O)N2CCCC3(C2)CC3(F)F)N2CCC[C@H]2CN2C[C@@]3(CCCc4cc(Cl)ccc43)COc3ccc(cc32)C(=O)NS1(=O)=O (some centres unmarked) [Compound 29]	0.494 nM	408 nM	–
C[C@@H]1[C@@H](C)C/C=C(\F)[C@H](C(=O)N2CCN(C)C3(CC3)C2)N2CCC[C@H]2CN2C[C@@]3(CCCc4cc(Cl)ccc43)COc3ccc(cc32)C(=O)NS1(=O)=O [Compound 83]	0.061 nM	252 nM	–
C[C@@H]1[C@@H](C)C/C=C(\F)[C@@H](C(=O)N(C)CCN2CCOCC2)N2CCC[C@H]2CN2C[C@@]3(CCCc4cc(Cl)ccc43)COc3ccc(cc32)C(=O)NS1(=O)=O (single isomer, unassigned) [Compound 33]	0.195 nM	218 nM	–
C[C@@H]1[C@@H](C)C/C=C(\F)[C@H](C(=O)N(C)CC2OCCO2)N2CCC[C@H]2CN2C[C@@]3(CCCc4cc(Cl)ccc43)COc3ccc(cc32)C(=O)NS1(=O)=O [Compound 79]	0.038 nM	106 nM	–
C[C@@H]1COCCN1C(=O)[C@H]1/C(F)=C/C[C@H](C)[C@@H](C)S(=O)(=O)NC(=O)c2ccc3c(c2)N(C[C@@H]2CCCN21)C[C@@]1(CCCc2cc(Cl)ccc21)CO3 (single isomer, unassigned) [Compound 11]	0.032 nM	163 nM	–
C[C@@H]1[C@@H](C)C/C=C(\F)[C@H](C(=O)N(C)CCN2CCOC(C(F)(F)F)C2)N2CCC[C@H]2CN2C[C@@]3(CCCc4cc(Cl)ccc43)COc3ccc(cc32)C(=O)NS1(=O)=O (single isomer, unassigned) [Compound 49]	0.287 nM	366 nM	–
C[C@@H]1[C@@H](C)C/C=C(\F)[C@H](C(=O)N(C)CCO)N2CCC[C@H]2CN2C[C@@]3(CCCc4cc(Cl)ccc43)COc3ccc(cc32)C(=O)NS1(=O)=O [Compound 27]	0.054 nM	396 nM	–
C[C@@H]1[C@@H](C)C/C=C(\F)[C@H](C(=O)N(C)C2CCCOC2)N2CCC[C@H]2CN2C[C@@]3(CCCc4cc(Cl)ccc43)COc3ccc(cc32)C(=O)NS1(=O)=O (single isomer, unassigned) [Compound 62]	0.058 nM	134 nM	–
C[C@@H]1[C@@H](C)C/C=C(\F)[C@@H](C(=O)N2C[C@H]3C[C@@H]2CO3)N2CCC[C@H]2CN2C[C@@]3(CCCc4cc(Cl)ccc43)COc3ccc(cc32)C(=O)NS1(=O)=O [Compound 10]	0.227 nM	285 nM	–
C[C@@H]1[C@@H](C)C/C=C(\F)[C@H](C(=O)N2CCOC[C@@H]2C)N2CCC[C@H]2CN2C[C@@]3(CCCc4cc(Cl)ccc43)COc3ccc(cc32)C(=O)NS1(=O)=O [Compound 12]	0.069 nM	196 nM	–
C[C@@H]1[C@@H](C)C/C=C(\F)[C@H](C(=O)N(C)Cc2ncnn2C)N2CCC[C@H]2CN2C[C@@]3(CCCc4cc(Cl)ccc43)COc3ccc(cc32)C(=O)NS1(=O)=O [Compound 81]	0.068 nM	537 nM	–
C[C@@H]1[C@@H](C)C/C=C(\F)[C@H](C(=O)N2CCN(C)CC2)N2CCC[C@H]2CN2C[C@@]3(CCCc4cc(Cl)ccc43)COc3ccc(cc32)C(=O)NS1(=O)=O [Compound 13]	0.059 nM	297 nM	–
C[C@@H]1[C@@H](C)C/C=C(\F)[C@H](C(=O)N(C)CC2COCCO2)N2CCC[C@H]2CN2C[C@@]3(CCCc4cc(Cl)ccc43)COc3ccc(cc32)C(=O)NS1(=O)=O (single isomer, unassigned) [Compound 55]	0.037 nM	–	81.2 nM
COCCN(CC1CCOCC1)C(=O)[C@H]1/C(F)=C/C[C@H](C)[C@@H](C)S(=O)(=O)NC(=O)c2ccc3c(c2)N(C[C@@H]2CCCN21)C[C@@]1(CCCc2cc(Cl)ccc21)CO3 [Compound 59]	0.06 nM	33.4 nM	–
CC1CN(CCN(C)C(=O)[C@H]2/C(F)=C/C[C@H](C)[C@@H](C)S(=O)(=O)NC(=O)c3ccc4c(c3)N(C[C@@H]3CCCN32)C[C@@]2(CCCc3cc(Cl)ccc32)CO4)CC(C)O1 (some centres unmarked) [Compound 44]	0.104 nM	87.3 nM	–
C[C@@H]1[C@@H](C)C/C=C(\F)[C@H](C(=O)N2CCC(CC#N)CC2)N2CCC[C@H]2CN2C[C@@]3(CCCc4cc(Cl)ccc43)COc3ccc(cc32)C(=O)NS1(=O)=O [Compound 46]	0.091 nM	329 nM	–
